Results reported in PubChem BioAssay AID2060907 (Molecular Pharmacology Branch, DTP, NCI, 2025).

System: 388556-164-R-J1-PDC complex spheroid viability
Assay: Anticancer human tumor 388556-164-R-J1-PDC patient-derived colon adenocarcinoma cell line growth inhibition [RAS]
Conditions: for IC50: curve of first compound; for viability, T/C: stronger effect = lower value
Summary of the method: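 Multi-cell-type spheroids: tumor cells plus HUVEC endothelial cells and mesenchymal stem cells. RAS-pathway inhibitors were combined with targeted agents, each dosed in half-log steps down from clinical Cmax, or from 10 microM when Cmax was unknown.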

[1] = second compound 0.000949 µM, first compound 0.00316 µM
[2] = second compound 0.000949 µM, first compound 0.01 µM
[3] = second compound 0.000949 µM, first compound 0.0316 µM
[4] = second compound 0.000949 µM, first compound 0.1 µM
[5] = second compound 0.000949 µM, first compound 0.316 µM
[6] = second compound 0.000949 µM, first compound 1 µM
[7] = second compound 0.003 µM, first compound 0.00316 µM
[8] = second compound 0.003 µM, first compound 0.01 µM
[9] = second compound 0.003 µM, first compound 0.0316 µM
[10] = second compound 0.003 µM, first compound 0.1 µM
[11] = second compound 0.003 µM, first compound 0.316 µM
[12] = second compound 0.003 µM, first compound 1 µM
[13] = second compound 0.00949 µM, first compound 0.00316 µM
[14] = second compound 0.00949 µM, first compound 0.01 µM
[15] = second compound 0.00949 µM, first compound 0.0316 µM
[16] = second compound 0.00949 µM, first compound 0.1 µM
[17] = second compound 0.00949 µM, first compound 0.316 µM
[18] = second compound 0.00949 µM, first compound 1 µM
[19] = second compound 0.03 µM, first compound 0.00316 µM
[20] = second compound 0.03 µM, first compound 0.01 µM
[21] = second compound 0.03 µM, first compound 0.0316 µM
[22] = second compound 0.03 µM, first compound 0.1 µM
[23] = second compound 0.03 µM, first compound 0.316 µM
[24] = second compound 0.03 µM, first compound 1 µM
[25] = second compound 0.0949 µM, first compound 0.00316 µM
[26] = second compound 0.0949 µM, first compound 0.01 µM
[27] = second compound 0.0949 µM, first compound 0.0316 µM
[28] = second compound 0.0949 µM, first compound 0.1 µM
[29] = second compound 0.0949 µM, first compound 0.316 µM
[30] = second compound 0.0949 µM, first compound 1 µM
[31] = second compound 0.3 µM, first compound 0.00316 µM
[32] = second compound 0.3 µM, first compound 0.01 µM
[33] = second compound 0.3 µM, first compound 0.0316 µM
[34] = second compound 0.3 µM, first compound 0.1 µM
[35] = second compound 0.3 µM, first compound 0.316 µM
[36] = second compound 0.3 µM, first compound 1 µM
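Also: spheroids exposed to compound for 7 days before readout.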
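For viability, T/C in this document: 100% = DMSO vehicle control luminescence.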

Structure (SMILES): C=CC(=O)N1CCN(c2nc(OCC3CCCN3C)nc3c(F)c(-c4nc(N)cc(C)c4C(F)(F)F)c(Cl)cc23)C(C)C1 (stereo not drawn) + CCn1c(-c2cc(N3CCN(C)CC3)cnc2C(C)OC)c2c3cc(ccc31)-c1csc(n1)CC(NC(=O)C1CC1C)C(=O)N1CCCC(N1)C(=O)OCC(C)(C)C2
- IC50 (second compound 0.000949 µM): > 1000 nM
- IC50 (second compound 0.003 µM): > 1000 nM
- IC50 (second compound 0.00949 µM): > 1000 nM
- IC50 (second compound 0.03 µM): > 1000 nM
- IC50 (second compound 0.0949 µM): < 3.16 nM
- IC50 (second compound 0.3 µM): < 3.16 nM
- viability, T/C [1]: 90.9%
- viability, T/C [2]: 97.7%
- viability, T/C [3]: 86.2%
- viability, T/C [4]: 91.5%
- viability, T/C [5]: 92.1%
- viability, T/C [6]: 93.5%
- viability, T/C [7]: 94.8%
- viability, T/C [8]: 83.5%
- viability, T/C [9]: 92.7%
- viability, T/C [10]: 86.9%
- viability, T/C [11]: 86.5%
- viability, T/C [12]: 84.2%
- viability, T/C [13]: 87%
- viability, T/C [14]: 79.5%
- viability, T/C [15]: 78.8%
- viability, T/C [16]: 70.4%
- viability, T/C [17]: 85%
- viability, T/C [18]: 65.9%
- viability, T/C [19]: 63.6%
- viability, T/C [20]: 68.7%
- viability, T/C [21]: 62.2%
- viability, T/C [22]: 62.3%
- viability, T/C [23]: 63.3%
- viability, T/C [24]: 62%
- viability, T/C [25]: 43.2%
- viability, T/C [26]: 39.9%
- viability, T/C [27]: 43.1%
- viability, T/C [28]: 49.5%
- viability, T/C [29]: 52.8%
- viability, T/C [30]: 45.6%
- viability, T/C [31]: 33.2%
- viability, T/C [32]: 31%
- viability, T/C [33]: 30.9%
- viability, T/C [34]: 34.9%
- viability, T/C [35]: 38%
- viability, T/C [36]: 32%

Structure (SMILES): CC1(C)CCC(Nc2ncc(C(F)(F)F)c(-c3c[nH]c4c(P(C)(C)=O)c(C#N)ccc34)n2)CN1 (stereo not drawn) + CCn1c(-c2cc(N3CCN(C)CC3)cnc2C(C)OC)c2c3cc(ccc31)-c1csc(n1)CC(NC(=O)C1CC1C)C(=O)N1CCCC(N1)C(=O)OCC(C)(C)C2
- IC50 (second compound 0.000949 µM): > 300 nM
- IC50 (second compound 0.003 µM): > 300 nM
- IC50 (second compound 0.00949 µM): > 300 nM
- IC50 (second compound 0.03 µM): > 300 nM
- IC50 (second compound 0.0949 µM): 3.41 nM
- IC50 (second compound 0.3 µM): < 0.949 nM
- viability, T/C (second compound 0.000949 µM, first compound 0.000949 µM): 104%
- viability, T/C (second compound 0.000949 µM, first compound 0.003 µM): 87.9%
- viability, T/C (second compound 0.000949 µM, first compound 0.00949 µM): 98.1%
- viability, T/C (second compound 0.000949 µM, first compound 0.03 µM): 78.5%
- viability, T/C (second compound 0.000949 µM, first compound 0.0949 µM): 83.8%
- viability, T/C (second compound 0.000949 µM, first compound 0.3 µM): 84.9%
- viability, T/C (second compound 0.003 µM, first compound 0.000949 µM): 101%
- viability, T/C (second compound 0.003 µM, first compound 0.003 µM): 86.9%
- viability, T/C (second compound 0.003 µM, first compound 0.00949 µM): 82.5%
- viability, T/C (second compound 0.003 µM, first compound 0.03 µM): 86.8%
- viability, T/C (second compound 0.003 µM, first compound 0.0949 µM): 85.3%
- viability, T/C (second compound 0.003 µM, first compound 0.3 µM): 77.1%
- viability, T/C (second compound 0.00949 µM, first compound 0.000949 µM): 84.2%
- viability, T/C (second compound 0.00949 µM, first compound 0.003 µM): 73.3%
- viability, T/C (second compound 0.00949 µM, first compound 0.00949 µM): 75.8%
- viability, T/C (second compound 0.00949 µM, first compound 0.03 µM): 72.5%
- viability, T/C (second compound 0.00949 µM, first compound 0.0949 µM): 74.6%
- viability, T/C (second compound 0.00949 µM, first compound 0.3 µM): 68.9%
- viability, T/C (second compound 0.03 µM, first compound 0.000949 µM): 77.4%
- viability, T/C (second compound 0.03 µM, first compound 0.003 µM): 70%
- viability, T/C (second compound 0.03 µM, first compound 0.00949 µM): 64.5%
- viability, T/C (second compound 0.03 µM, first compound 0.03 µM): 67.9%
- viability, T/C (second compound 0.03 µM, first compound 0.0949 µM): 71.6%
- viability, T/C (second compound 0.03 µM, first compound 0.3 µM): 58.2%
- viability, T/C (second compound 0.0949 µM, first compound 0.000949 µM): 55.5%
- viability, T/C (second compound 0.0949 µM, first compound 0.003 µM): 47.1%
- viability, T/C (second compound 0.0949 µM, first compound 0.00949 µM): 47.9%
- viability, T/C (second compound 0.0949 µM, first compound 0.03 µM): 44.1%
- viability, T/C (second compound 0.0949 µM, first compound 0.0949 µM): 48.8%
- viability, T/C (second compound 0.0949 µM, first compound 0.3 µM): 46.1%
- viability, T/C (second compound 0.3 µM, first compound 0.000949 µM): 33%
- viability, T/C (second compound 0.3 µM, first compound 0.003 µM): 34.5%
- viability, T/C (second compound 0.3 µM, first compound 0.00949 µM): 33.1%
- viability, T/C (second compound 0.3 µM, first compound 0.03 µM): 35.9%
- viability, T/C (second compound 0.3 µM, first compound 0.0949 µM): 41.5%
- viability, T/C (second compound 0.3 µM, first compound 0.3 µM): 37.4%

Structure (SMILES): C=CC(=O)Nc1cc(Nc2nccc(-c3cn(C)c4ccccc34)n2)c(OC)cc1N(C)CCN(C)C + CCn1c(-c2cccnc2C(C)OC)c2c3cc(ccc31)N1CCOC(CC(NC(=O)C(C(C)C)N(C)C(=O)C3(F)CCN(C(=O)C#CC(C)(C)N(C)C)CC3)C(=O)N3CCCC(N3)C(=O)OCC(C)(C)C2)C1
- IC50 (second compound 0.000949 µM): > 1000 nM
- IC50 (second compound 0.003 µM): > 1000 nM
- IC50 (second compound 0.00949 µM): > 1000 nM
- IC50 (second compound 0.03 µM): 974 nM
- IC50 (second compound 0.0949 µM): 864 nM
- IC50 (second compound 0.3 µM): 849 nM
- viability, T/C [1]: 98.7%
- viability, T/C [2]: 93.3%
- viability, T/C [3]: 91.5%
- viability, T/C [4]: 88.5%
- viability, T/C [5]: 75.2%
- viability, T/C [6]: 53.4%
- viability, T/C [7]: 108%
- viability, T/C [8]: 108%
- viability, T/C [9]: 101%
- viability, T/C [10]: 83.6%
- viability, T/C [11]: 73.8%
- viability, T/C [12]: 53.4%
- viability, T/C [13]: 105%
- viability, T/C [14]: 107%
- viability, T/C [15]: 90.9%
- viability, T/C [16]: 80.2%
- viability, T/C [17]: 82.3%
- viability, T/C [18]: 54.1%
- viability, T/C [19]: 107%
- viability, T/C [20]: 96.2%
- viability, T/C [21]: 101%
- viability, T/C [22]: 88.1%
- viability, T/C [23]: 70.6%
- viability, T/C [24]: 49.5%
- viability, T/C [25]: 105%
- viability, T/C [26]: 108%
- viability, T/C [27]: 95.9%
- viability, T/C [28]: 93.9%
- viability, T/C [29]: 75%
- viability, T/C [30]: 46%
- viability, T/C [31]: 98.5%
- viability, T/C [32]: 89.3%
- viability, T/C [33]: 89.5%
- viability, T/C [34]: 81.5%
- viability, T/C [35]: 69.4%
- viability, T/C [36]: 46.3%

Structure (SMILES): O=C(c1ccc(F)c(F)c1Nc1ccc(I)cc1F)N1CC(O)([C@@H]2CCCCN2)C1 + CCn1c(-c2cccnc2C(C)OC)c2c3cc(ccc31)N1CCOC(CC(NC(=O)C(C(C)C)N(C)C(=O)C3(F)CCN(C(=O)C#CC(C)(C)N(C)C)CC3)C(=O)N3CCCC(N3)C(=O)OCC(C)(C)C2)C1
- IC50 (second compound 0.000949 µM): 241 nM
- IC50 (second compound 0.003 µM): 173 nM
- IC50 (second compound 0.00949 µM): 247 nM
- IC50 (second compound 0.03 µM): 185 nM
- IC50 (second compound 0.0949 µM): 175 nM
- IC50 (second compound 0.3 µM): 172 nM
- viability, T/C [1]: 94%
- viability, T/C [2]: 91.1%
- viability, T/C [3]: 81.7%
- viability, T/C [4]: 70.6%
- viability, T/C [5]: 43%
- viability, T/C [6]: 25.2%
- viability, T/C [7]: 104%
- viability, T/C [8]: 97.3%
- viability, T/C [9]: 76.4%
- viability, T/C [10]: 60.8%
- viability, T/C [11]: 39.5%
- viability, T/C [12]: 22.5%
- viability, T/C [13]: 100%
- viability, T/C [14]: 96.8%
- viability, T/C [15]: 77.7%
- viability, T/C [16]: 64.8%
- viability, T/C [17]: 47.6%
- viability, T/C [18]: 22.6%
- viability, T/C [19]: 115%
- viability, T/C [20]: 98.1%
- viability, T/C [21]: 89.9%
- viability, T/C [22]: 62.5%
- viability, T/C [23]: 37.6%
- viability, T/C [24]: 22.3%
- viability, T/C [25]: 102%
- viability, T/C [26]: 97.5%
- viability, T/C [27]: 84.8%
- viability, T/C [28]: 57.8%
- viability, T/C [29]: 41.5%
- viability, T/C [30]: 23.3%
- viability, T/C [31]: 81.5%
- viability, T/C [32]: 81.8%
- viability, T/C [33]: 72.8%
- viability, T/C [34]: 59.1%
- viability, T/C [35]: 39.7%
- viability, T/C [36]: 20.2%
